Series [1] deals with T1, Protease VIII: "Subtilopeptidase A" (Bacillus licheniformis, UniProt P00780).
T1 sequence (P00780 106-379): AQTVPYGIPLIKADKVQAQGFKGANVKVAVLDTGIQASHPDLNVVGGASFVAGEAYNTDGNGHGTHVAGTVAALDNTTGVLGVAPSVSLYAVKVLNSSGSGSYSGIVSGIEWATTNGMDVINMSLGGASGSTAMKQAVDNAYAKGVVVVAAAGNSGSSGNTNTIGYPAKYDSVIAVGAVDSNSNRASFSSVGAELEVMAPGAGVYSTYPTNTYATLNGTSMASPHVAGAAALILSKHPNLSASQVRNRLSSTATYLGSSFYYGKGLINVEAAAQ
Kind of series: Rate of hydrolysis of single enantiomers by pH stat, enzyme B. It is filed as biochemical. The settings on record: for Rate: 50 mM single enantiomer, 50 mM buffer pH 7.6, enzyme B. Here is the method: (§1) 15 ml of a solution containing one enantiomer of the ester at a concentration of 50 mM, and Na3PO4 buffer at 50 mM and pH 7.6 was observed using a pH stat device. 0.1 ml of a 50 mg/ml solution of enzyme B, made up from the commercially available preparation in 50 mM Na3 P04 buffer at pH 7.6, were added. Rates of hydrolysis of both enantiomers of the ester compound were determined for the enzyme. The ratio of the rates of hydrolysis for the two enantiomers for the two enantiomers with respect to the enzyme indicate the stereospecificity of that enzyme's hydrolytic action on the racemic mixture of the ester. No evidence for the hydrolysis of the acetylthio ester portion of the substrate molecule was found.

Another series concerns Protease XIV. Kind of series: Rate of hydrolysis of single enantiomers by pH stat, enzyme I. It is filed as biochemical, Streptomyces griseus. The settings on record: for Rate: 50 mM single enantiomer, 50 mM buffer pH 7.6, Example 6.2.3.2 (enzyme I in text, (G) in table). The protocol: as §1, with “solution of protease enzyme I,” for “solution of enzyme B,”, “protease enzyme I, made up” for “of enzyme B, made up”, “50 mM Na3PO4 buffer at” for “50 mM Na3 P04 buffer at”, “for the protease enzyme. The” for “for the enzyme. The”, “ester. No” for “ester. No evidence for the hydrolysis of the acetylthio ester portion of the substrate molecule was found.”
evidence for the hydrolysis of the acetylthio ester portion of the substrate molecule was found.

The test system of another series is Protease XXIII. Kind of series: Rate of hydrolysis of single enantiomers by pH stat, enzyme A. The note with it: for Rate: 50 mM single enantiomer, 50 mM buffer pH 7.6, enzyme A. It is filed as biochemical, Aspergillus oryzae. Here is the method: as §1, with “A,” for “B,”
The test system of series [2] is Protease XXIV: bacterial protease. Kind of series: Rate of hydrolysis of single enantiomers by pH stat, enzyme J. It is filed as biochemical. The note with it: for Rate: 50 mM single enantiomer, 50 mM buffer pH 7.6, Example 6.2.3.4 (Enzyme J in text, (H) in table). Here is the method: as §1, with “Enzyme J,” for “enzyme B,”, “Na3PO4” for “Na3 P04”
For series [3], the target named is T2, Protease XXVII: "Nagarse" (Bacillus amyloliquefaciens, UniProt P00782).
T2 sequence (P00782 108-382): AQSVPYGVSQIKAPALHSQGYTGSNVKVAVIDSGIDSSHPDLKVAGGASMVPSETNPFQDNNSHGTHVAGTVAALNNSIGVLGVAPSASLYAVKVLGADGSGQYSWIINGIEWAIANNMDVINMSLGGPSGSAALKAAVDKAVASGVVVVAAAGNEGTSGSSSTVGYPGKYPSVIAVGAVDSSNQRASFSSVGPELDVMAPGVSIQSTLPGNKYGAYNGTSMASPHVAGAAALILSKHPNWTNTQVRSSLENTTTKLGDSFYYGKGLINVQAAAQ
Kind of series: Rate of hydrolysis of single enantiomers by pH stat, enzyme D. Type of series: biochemical. The note with it: for Rate: 50 mM single enantiomer, 50 mM buffer pH 7.6, enzyme D. The protocol: as §1, with “D,” for “B,”, “thioacetyl” for “acetylthio”

Series [4] deals with Candida lipase (Genzyme Corporation). Kind of series: Asymmetric hydrolysis in a multiphase membrane bioreactor with enzyme G. It is filed as biochemical, Candida cylindracea. The note with it: first 45 minutes; 0.75M ester in MIBK, 3.0 grams lipase in membrane, pH 8.50. An excerpt: The module was then drained.
This material was recrystallized from hexane.

The test system of a further series is intact microorganism. The settings on record: 400 mg dried cells, 160 mg (±)-substrate; Iriuchijima and Keiyu 1981; cited from earlier work.
Series [5] is described as follows: Solubility by absorbance of saturated solutions at 262 nm. Type of series: physicochemical.
The test system of series [6] is Candida lipase (Sigma L 1754). Kind of series: Asymmetric hydrolysis in a multiphase membrane bioreactor with enzyme H. The settings on record: for rate of ester hydrolysis: pH 7.0.
Description: The enzyme solution was recirculated from the shell side to the lumen side and back to the solution reservoir in an ultra-filtration mode. […] The procedure was completed in one hour.
After loading the enzyme to the reactor, recirculation of 210 gm. […] The recirculation rate was 400 ml/min and the average pressure on the shell compartment was kept at 45,5 KPa (6.5 psi) by adjusting a throttling valve at the shell side exit. On the lumen side 1 liter of 0.05 M K2 PO4 was recirculated at a rate of 400 ml/min. The pH of the aqueous reservoir was kept at 7.0 by addition of 1 M NaOH. The reactor was run continuously for 6.8 days.
The reaction progress and rate were monitored by following the caustic consumption.

In brackets after ≈: the same amount, converted by molar mass. Where a name gives a salt, the structure may show the parent alone. Read-outs that look alike come from different tables or passages of the source.

Regarding `CC(=O)SC[C@@H](C)C(=O)OCS(=O)(=O)O` [Compound 14, Potassium Salt of the Sulfomethyl Ester of D-(-)-S-3-Acetylthio-2-methylpropanoic Acid], the Rate is listed as 65 umols/hr/mg in series [1]; 63 umols/hr/mg in the series on Protease XIV; 5.3 umols/hr/mg in the series on Protease XXIII; 61 umols/hr/mg in series [2]; 27 umols/hr/mg in [3].
Take `CC(=O)SC[C@H](C)C(=O)OCS(=O)(=O)O` [Compound 15, Potassium Salt of the Sulfomethyl Ester of L-(+)-S-3-Acetylthio-2-methylpropanoic Acid]: the Rate is reported as 135 umols/hr/mg in series [1]; 105 umols/hr/mg in the series with Protease XIV; 12 umols/hr/mg in the series with Protease XXIII; 65 umols/hr/mg in series [2]; 29 umols/hr/mg in series [3]. For the same compound, the “Rate Ratio L/D” value in series [1] (enzyme B, pH 7.6) worked out at 2.1; in the series on Protease XIV (Example 6.2.3.2, pH 7.6) it was 1.7; in the series with Protease XXIII (enzyme A, pH 7.6), 2.3; in series [2] (Example 6.2.3.4, pH 7.6), 1.1; in series [3] (enzyme D, pH 7.6), 1.1.
As for `COC(=O)C(C)c1ccc2cc(OC)ccc2c1` (racemic) [Compound 18, Methyl Ester of 2-(6-Methoxy-2-naphthyl)propanoic Acid], the average rate in series [4] is recorded as 35 amol/hr. Besides, the substrate converted in the series with intact microorganism is on record as 16.3%.
A word on the solubility: it is the concentration that dissolves in the medium under given conditions. Consider `CCCCCCCCOC(=O)C(C)Cl` (racemic) [Compound 20, Octyl Ester of 2-Chloropropanoic Acid], for which the solubility in [5] (aqueous buffer, saturated solutions, pH 7 (50 mM phosphate buffer), room temperature, read-out: Solubility) was 1200 µM (≈ 265 µg/mL); in [5] (water, as stated in the text of the examples, read-out: water solubility), roughly 1200 µM (≈ 265 µg/mL). Further, the “rate of ester hydrolysis” value in series [6] (at the beginning of the experiment, 210 gm neat ester, 30 grams Candida lipase in membrane) amounted to 186 µmol/min; in series [6] (at the end of the experiment (6.8 days)), 25 µmol/min. In series [6] (when the experiment was terminated (6.8 days)), this compound gave an initial ester hydrolyzed of 41%.
